Results reported in patent publication US10526389B2, “Peptides and combinations of peptides for use in immunotherapy against lung cancer, including NSCLC and other cancers” (Immatics Biotechnologies GmbH, priority 2015, dated 2020).

Tested on: CD8+ T cells
Test: In vitro immunogenicity of HLA-A*02 peptides (CD8+ T-cell priming with aAPCs, multimer staining)
Assay type: cell-based, human
Text: In order to obtain information regarding the immunogenicity of the TUMAPs of the present invention, the inventors performed investigations using an in vitro T-cell priming assay based on repeated stimulations of CD8+ T cells with artificial antigen presenting cells (aAPCs) loaded with peptide/MHC complexes and anti-CD28 antibody.
In order to perform in vitro stimulations by artificial antigen presenting cells loaded with peptide-MHC complex (pMHC) and anti-CD28 antibody, the inventors first isolated CD8+ T cells from fresh HLA-A*02 leukapheresis products via positive selection using CD8 microbeads (Miltenyi Biotec, Bergisch-Gladbach, Germany) of healthy donors obtained from the University clinics Mannheim, Germany, after informed consent.
PBMCs and isolated CD8+ lymphocytes were incubated in T-cell medium (TCM) until use consisting of RPMI-Glutamax (Invitrogen, Karlsruhe, Germany) supplemented with 10% heat inactivated human AB serum (PAN-Biotech, Aidenbach, Germany), 100 U/ml Penicillin/100 μg/ml Streptomycin (Cambrex, Cologne, Germany), 1 mM sodium pyruvate (CC Pro, Oberdorla, Germany), 20 μg/ml Gentamycin (Cambrex). 2.5 ng/ml IL-7 (PromoCell, Heidelberg, Germany) and 10 U/ml IL-2 (Novartis Pharma, Nurnberg, Germany) were also added to the TCM at this step.
Generation of pMHC/anti-CD28 coated beads, T-cell stimulations and readout was performed in a highly defined in vitro system using four different pMHC molecules per stimulation condition and 8 different pMHC molecules per readout condition.
The purified co-stimulatory mouse IgG2a anti human CD28 Ab 9.3 (Jung et al., 1987) was chemically biotinylated using Sulfo-N-hydroxysuccinimidobiotin as recommended by the manufacturer (Perbio, Bonn, Germany). Beads used were 5.6 μm diameter streptavidin coated polystyrene particles (Bangs Laboratories, Illinois, USA).
800.000 beads/200 μl were coated in 96-well plates in the presence of 4×12.5 ng different biotin-pMHC, washed and 600 ng biotin anti-CD28 were added subsequently in a volume of 200 μl. Stimulations were initiated in 96-well plates by co-incubating 1×10^6 CD8+ T cells with 2×10^5 washed coated beads in 200 μl TCM supplemented with 5 ng/ml IL-12 (PromoCell) for 3 days at 37° C. Half of the medium was then exchanged by fresh TCM supplemented with 80 U/ml IL-2 and incubating was continued for 4 days at 37° C. This stimulation cycle was performed for a total of three times. For the pMHC multimer readout using 8 different pMHC molecules per condition, a two-dimensional combinatorial coding approach was used as previously described (Andersen et al., 2012) with minor modifications encompassing coupling to 5 different fluorochromes. Finally, multimeric analyses were performed by staining the cells with Live/dead near IR dye (Invitrogen, Karlsruhe, Germany), CD8-FITC antibody clone SK1 (BD, Heidelberg, Germany) and fluorescent pMHC multimers. For analysis, a BD LSRII SORP cytometer equipped with appropriate lasers and filters was used. Peptide specific cells were calculated as percentage of total CD8+ cells. Evaluation of multimeric analysis was done using the FlowJo software (Tree Star, Oregon, USA). In vitro priming of specific multimer+CD8+ lymphocytes was detected by comparing to negative control stimulations.

Substance | in vitro immunogenicity: donors | in vitro immunogenicity: wells
ABCA13-001 (ILFEINPKL) | ++++ (>= 70% = ++++) | + (<20% = +)
ABCA13-002 (ALDENLHQL) | +++ (50%-69% = +++) | + (<20% = +)
ADAM8-001 (KLLTEVHAA; listed as Homo sapiens) | ++++ (>= 70% = ++++) | + (<20% = +)
AIVDKVPSV (listed as Homo sapiens) [SEQ ID No. 143] | +++ (50%-69% = +++) | + (<20% = +)
ALLNILSEV (listed as Homo sapiens) [SEQ ID No. 8] | ++++ (>= 70% = ++++) | ++ (20%-49% = ++)
ALTSTLISV (listed as Homo sapiens) [SEQ ID No. 5] | ++++ (>= 70% = ++++) | + (<20% = +)
ALVDHTPYL (listed as Homo sapiens) [SEQ ID No. 136] | ++++ (>= 70% = ++++) | + (<20% = +)
ALVQDLAKA (listed as Homo sapiens) [SEQ ID No. 131] | ++++ (>= 70% = ++++) | ++ (20%-49% = ++)
ATP-001 (SLHFLILYV; listed as Homo sapiens) | ++++ (>= 70% = ++++) | ++++ (>= 70% = ++++)
BNC1-001 (VLFPNLKTV) | ++++ (>= 70% = ++++) | + (<20% = +)
BUB1B-001 (KIVDFSYSV) | ++++ (>= 70% = ++++) | ++ (20%-49% = ++)
CCNB2-001 (ILVDWLVQV; listed as Homo sapiens) | ++++ (>= 70% = ++++) | ++ (20%-49% = ++)
CDK4-001 (TLWYRAPEV; listed as Homo sapiens) | ++++ (>= 70% = ++++) | ++++ (>= 70% = ++++)
CERC-001 (KLSWDLIYL; listed as Homo sapiens) | ++++ (>= 70% = ++++) | +++ (50%-69% = +++)
COG4-001 (SLVAVELEKV) | ++++ (>= 70% = ++++) | + (<20% = +)
COL6A3-002 (FLLDGSANV; listed as Homo sapiens) | ++++ (>= 70% = ++++) | ++ (20%-49% = ++)
COL6A3-003 (NLLDLDYEL; listed as Homo sapiens) | ++++ (>= 70% = ++++) | + (<20% = +)
COL6A3-007 (FLYDVVKSL; listed as Homo sapiens) | ++++ (>= 70% = ++++) | + (<20% = +)
COL6A3-010 (KLLPYIVGV; listed as Homo sapiens) | ++++ (>= 70% = ++++) | ++ (20%-49% = ++)
COL12A1-002 (FLVDGSWSV; listed as Homo sapiens) | ++ (20%-49% = ++) | + (<20% = +)
CSNK2A2-001 (VLSSGLTAA; listed as Homo sapiens) | + (<20% = +) | + (<20% = +)
DIO2-001 (ALYDSVILL; listed as Homo sapiens) | + (<20% = +) | + (<20% = +)
DKC-001 (ALFQRPPLI; listed as Homo sapiens) | ++++ (>= 70% = ++++) | ++ (20%-49% = ++)
DONSON-001 (VLYPHEPTAV; listed as Homo sapiens) | ++++ (>= 70% = ++++) | + (<20% = +)
DROSHA-001 (AVVEFLTSV) | ++++ (>= 70% = ++++) | + (<20% = +)

Substance | in vitro immunogenicity: donors | in vitro immunogenicity: wells
DUSP4-001 (FVFSFPVSV; listed as Homo sapiens) | ++++ (>= 70% = ++++) | ++ (20%-49% = ++)
ERO-001 (LLLEILHEI; listed as Homo sapiens) | +++ (50%-69% = +++) | + (<20% = +)
FLFDGSANL (listed as Homo sapiens) [SEQ ID No. 13] | ++ (20%-49% = ++) | + (<20% = +)
FLIPYAIML (listed as Homo sapiens) [SEQ ID No. 2] | ++++ (>= 70% = ++++) | + (<20% = +)
FZD-001 (VLAPLFVYL; listed as Homo sapiens) | ++++ (>= 70% = ++++) | +++ (50%-69% = +++)
GBP5-001 (SLLSELQHA; listed as Homo sapiens) | ++ (20%-49% = ++) | + (<20% = +)
GFPT2-001 (AIDGNNHEV) | ++++ (>= 70% = ++++) | +++ (50%-69% = +++)
ILIDWLVQV (listed as Homo sapiens) [SEQ ID No. 117] | ++++ (>= 70% = ++++) | ++ (20%-49% = ++)
ILLTEQINL (listed as Homo sapiens) [SEQ ID No. 18] | ++ (20%-49% = ++) | + (<20% = +)
ILQDRLNQV (listed as Homo sapiens) [SEQ ID No. 152] | +++ (50%-69% = +++) | + (<20% = +)
IVAESLQQV (listed as Homo sapiens) [SEQ ID No. 105] | + (<20% = +) | + (<20% = +)
IVDDITYNV (listed as Homo sapiens) [SEQ ID No. 119] | ++++ (>= 70% = ++++) | ++ (20%-49% = ++)
IVDRTTTVV (listed as Homo sapiens) [SEQ ID No. 12] | ++++ (>= 70% = ++++) | ++++ (>= 70% = ++++)
KIF26B-001 (TVAEVIQSV; listed as Homo sapiens) | + (<20% = +) | + (<20% = +)
KIFDEILVNA (listed as Homo sapiens) [SEQ ID No. 144] | ++ (20%-49% = ++) | + (<20% = +)
KIIGIMEEV (listed as Homo sapiens) [SEQ ID No. 95] | ++++ (>= 70% = ++++) | ++++ (>= 70% = ++++)
KILEDVVGV (listed as Homo sapiens) [SEQ ID No. 130] | ++++ (>= 70% = ++++) | ++ (20%-49% = ++)
KIQEILTQV (listed as Homo sapiens) [SEQ ID No. 120] | ++++ (>= 70% = ++++) | + (<20% = +)
KIQEMQHFL (listed as Homo sapiens) [SEQ ID No. 116] | ++++ (>= 70% = ++++) | + (<20% = +)
KLDETNNTL (listed as Homo sapiens) [SEQ ID No. 158] | ++ (20%-49% = ++) | + (<20% = +)
KRT-006 (TLLQEQGTKTV; listed as Homo sapiens) | ++ (20%-49% = ++) | + (<20% = +)
LIFDLGGGTFDV (listed as Homo sapiens) [SEQ ID No. 16] | +++ (50%-69% = +++) | + (<20% = +)
LIQDRVAEV (listed as Homo sapiens) [SEQ ID No. 14] | ++++ (>= 70% = ++++) | + (<20% = +)
MAGEF1-001 (ILFPDIIARA; listed as Homo sapiens) | ++++ (>= 70% = ++++) | +++ (50%-69% = +++)
